Measured values from ChEMBL document CHEMBL1671734, “An ertapenem-resistant extended-spectrum-beta-lactamase-producing Klebsiella pneumoniae clone carries a novel OmpK36 porin variant” (2010).
Values after ≈ are worked out from the molar mass of the structure shown.

How the values were obtained:
Type in all cases: functional
[1] = tested on: Klebsiella pneumoniae; assay: Antimicrobial activity against ESBL-positive Klebsiella pneumoniae 287942 harboring porin OmpK36 gene by Etest
[2] = tested on: Klebsiella pneumoniae; assay: Antimicrobial activity against ESBL-positive Klebsiella pneumoniae 26077 harboring porin OmpK36V mutant gene by Etest
[3] = tested on: Klebsiella pneumoniae; assay: Antimicrobial activity against ESBL-negative Klebsiella pneumoniae 30018 harboring porin OmpK35 gene by Etest
[4] = tested on: Klebsiella pneumoniae; assay: Antimicrobial activity against ESBL-positive Klebsiella pneumoniae 18260 by Etest
[5] = tested on: Klebsiella pneumoniae; assay: Antimicrobial activity against ESBL-positive Klebsiella pneumoniae 69928 harboring porin OmpK36V mutant gene by Etest
[6] = tested on: Klebsiella pneumoniae; assay: Antimicrobial activity against ESBL-positive Klebsiella pneumoniae 6267 harboring porin OmpK36V mutant gene by Etest
[7] = tested on: Klebsiella pneumoniae; assay: Antimicrobial activity against ESBL-positive Klebsiella pneumoniae 16855 harboring porin OmpK36 and OmpK35 genes by Etest
[8] = tested on: Klebsiella pneumoniae; assay: Antimicrobial activity against ESBL-positive Klebsiella pneumoniae 31750 harboring porin OmpK36 gene by Etest
[9] = tested on: Klebsiella pneumoniae; assay: Antimicrobial activity against ESBL-positive Klebsiella pneumoniae 19039 harboring porin OmpK36V mutant gene by Etest
[10] = tested on: Klebsiella pneumoniae; assay: Antimicrobial activity against ESBL-positive Klebsiella pneumoniae 18260 harboring pSHA2-encoded porin OmpK36 gene by Etest
[11] = tested on: Klebsiella pneumoniae; assay: Antimicrobial activity against ESBL-positive Klebsiella pneumoniae 17829 harboring pSHA2-encoded porin OmpK36 gene by Etest
[12] = tested on: Klebsiella pneumoniae; assay: Antimicrobial activity against ESBL-positive Klebsiella pneumoniae 17049 harboring porin OmpK36V mutant gene by Etest
[13] = tested on: Klebsiella pneumoniae; assay: Antimicrobial activity against ESBL-positive Klebsiella pneumoniae 18567 harboring porin OmpK36V mutant gene by Etest
[14] = tested on: Klebsiella pneumoniae; assay: Antimicrobial activity against ESBL-positive Klebsiella pneumoniae 69036 harboring porin OmpK36V mutant gene by Etest
[15] = tested on: Klebsiella pneumoniae; assay: Antimicrobial activity against ESBL-positive Klebsiella pneumoniae 71697 harboring porin OmpK36V mutant gene by Etest
[16] = tested on: Klebsiella pneumoniae; assay: Antimicrobial activity against ESBL-positive Klebsiella pneumoniae 25008 by Etest
[17] = tested on: Klebsiella pneumoniae; assay: Antimicrobial activity against ESBL-positive Klebsiella pneumoniae 18918 harboring porin OmpK36V mutant gene by Etest
[18] = tested on: Klebsiella pneumoniae; assay: Antimicrobial activity against ESBL-positive Klebsiella pneumoniae 29459 harboring porin OmpK36 gene by Etest
[19] = tested on: Klebsiella pneumoniae; assay: Antimicrobial activity against ESBL-positive Klebsiella pneumoniae 17834 harboring porin OmpK36V mutant gene by Etest
[20] = tested on: Klebsiella pneumoniae; assay: Antimicrobial activity against ESBL-negative Klebsiella pneumoniae 299332 harboring porin OmpK36 gene by Etest
[21] = tested on: Klebsiella pneumoniae; assay: Antimicrobial activity against ESBL-positive Klebsiella pneumoniae 11932 harboring porin OmpK36 gene by Etest
[22] = tested on: Klebsiella pneumoniae; assay: Antimicrobial activity against ESBL-positive Klebsiella pneumoniae 50748 harboring porin OmpK36 gene by Etest
[23] = tested on: Klebsiella pneumoniae; assay: Antimicrobial activity against ESBL-positive Klebsiella pneumoniae 17830 harboring porin OmpK36V mutant gene by Etest
[24] = tested on: Klebsiella pneumoniae; assay: Antimicrobial activity against ESBL-positive Klebsiella pneumoniae 29830 harboring porin OmpK36V mutant gene by Etest
[25] = tested on: Klebsiella pneumoniae; assay: Antimicrobial activity against ESBL-positive Klebsiella pneumoniae 17829 by Etest
[26] = tested on: Klebsiella pneumoniae; assay: Antimicrobial activity against ESBL-positive Klebsiella pneumoniae 16830 harboring porin OmpK36 gene by Etest
[27] = tested on: Klebsiella pneumoniae; assay: Antimicrobial activity against ESBL-positive Klebsiella pneumoniae 29830 harboring porin OmpK36V mutant gene by Etest in presence of Tazobactam
[28] = tested on: Klebsiella pneumoniae; assay: Antimicrobial activity against ESBL-positive Klebsiella pneumoniae 29459 harboring porin OmpK36 gene by Etest in presence of Tazobactam
[29] = tested on: Klebsiella pneumoniae; assay: Antimicrobial activity against ESBL-positive Klebsiella pneumoniae 69928 harboring porin OmpK36V mutant gene by Etest in presence of Tazobactam
[30] = tested on: Klebsiella pneumoniae; assay: Antimicrobial activity against ESBL-positive Klebsiella pneumoniae 71697 harboring porin OmpK36V mutant gene by Etest in presence of Tazobactam
[31] = tested on: Klebsiella pneumoniae; assay: Antimicrobial activity against ESBL-positive Klebsiella pneumoniae 17830 harboring porin OmpK36V mutant gene by Etest in presence of Tazobactam
[32] = tested on: Klebsiella pneumoniae; assay: Antimicrobial activity against ESBL-positive Klebsiella pneumoniae 18260 by Etest in presence of Tazobactam
[33] = tested on: Klebsiella pneumoniae; assay: Antimicrobial activity against ESBL-positive Klebsiella pneumoniae 18567 harboring porin OmpK36V mutant gene by Etest in presence of Tazobactam
[34] = tested on: Klebsiella pneumoniae; assay: Antimicrobial activity against ESBL-positive Klebsiella pneumoniae 18918 harboring porin OmpK36V mutant gene by Etest in presence of Tazobactam
[35] = tested on: Klebsiella pneumoniae; assay: Antimicrobial activity against ESBL-positive Klebsiella pneumoniae 16855 harboring porin OmpK36 and OmpK35 genes by Etest in presence of Tazobactam
[36] = tested on: Klebsiella pneumoniae; assay: Antimicrobial activity against ESBL-positive Klebsiella pneumoniae 17834 harboring porin OmpK36V mutant gene by Etest in presence of Tazobactam
[37] = tested on: Klebsiella pneumoniae; assay: Antimicrobial activity against ESBL-positive Klebsiella pneumoniae 11932 harboring porin OmpK36 gene by Etest in presence of Tazobactam
[38] = tested on: Klebsiella pneumoniae; assay: Antimicrobial activity against ESBL-positive Klebsiella pneumoniae 16830 harboring porin OmpK36 gene by Etest in presence of Tazobactam
[39] = tested on: Klebsiella pneumoniae; assay: Antimicrobial activity against ESBL-positive Klebsiella pneumoniae 26077 harboring porin OmpK36V mutant gene by Etest in presence of Tazobactam
[40] = tested on: Klebsiella pneumoniae; assay: Antimicrobial activity against ESBL-positive Klebsiella pneumoniae 25008 by Etest in presence of Tazobactam
[41] = tested on: Klebsiella pneumoniae; assay: Antimicrobial activity against ESBL-positive Klebsiella pneumoniae 50748 harboring porin OmpK36 gene by Etest in presence of Tazobactam
[42] = tested on: Klebsiella pneumoniae; assay: Antimicrobial activity against ESBL-positive Klebsiella pneumoniae 6267 harboring porin OmpK36V mutant gene by Etest in presence of Tazobactam
[43] = tested on: Klebsiella pneumoniae; assay: Antimicrobial activity against ESBL-positive Klebsiella pneumoniae 31750 harboring porin OmpK36 gene by Etest in presence of Tazobactam
[44] = tested on: Klebsiella pneumoniae; assay: Antimicrobial activity against ESBL-positive Klebsiella pneumoniae 19039 harboring porin OmpK36V mutant gene by Etest in presence of Tazobactam
[45] = tested on: Klebsiella pneumoniae; assay: Antimicrobial activity against ESBL-positive Klebsiella pneumoniae 17049 harboring porin OmpK36V mutant gene by Etest in presence of Tazobactam
[46] = tested on: Klebsiella pneumoniae; assay: Antimicrobial activity against ESBL-negative Klebsiella pneumoniae 299332 harboring porin OmpK36 gene by Etest in presence of Tazobactam
[47] = tested on: Klebsiella pneumoniae; assay: Antimicrobial activity against ESBL-positive Klebsiella pneumoniae 287942 harboring porin OmpK36 gene by Etest in presence of Tazobactam
[48] = tested on: Klebsiella pneumoniae; assay: Antimicrobial activity against ESBL-positive Klebsiella pneumoniae 69036 harboring porin OmpK36V mutant gene by Etest in presence of Tazobactam
[49] = tested on: Klebsiella pneumoniae; assay: Antimicrobial activity against ESBL-negative Klebsiella pneumoniae 30018 harboring porin OmpK35 gene by Etest in presence of Tazobactam
[50] = tested on: Klebsiella pneumoniae; assay: Antimicrobial activity against ESBL-positive Klebsiella pneumoniae 17829 by Etest in presence of Tazobactam

C[C@@H](O)[C@H]1C(=O)N2C(C(=O)O)=C(S[C@@H]3CN[C@H](C(=O)N(C)C)C3)[C@H](C)[C@H]12 [MEROPENEM]
MIC [1]: 0.064 µg/mL (≈ 0.167 µM)
MIC [2]: 1 µg/mL (≈ 2.61 µM)
MIC [3]: 0.032 µg/mL (≈ 0.0834 µM)
MIC [4]: 12 µg/mL (≈ 31.3 µM)
MIC [5]: 1.5 µg/mL (≈ 3.91 µM)
MIC [6]: 1 µg/mL (≈ 2.61 µM)
MIC [7]: 0.064 µg/mL (≈ 0.167 µM)
MIC [8]: 0.064 µg/mL (≈ 0.167 µM)
MIC [9]: 1 µg/mL (≈ 2.61 µM)
MIC [10]: 1 µg/mL (≈ 2.61 µM)
MIC [11]: 1 µg/mL (≈ 2.61 µM)
MIC [12]: 2 µg/mL (≈ 5.22 µM)
MIC [13]: 1 µg/mL (≈ 2.61 µM)
MIC [14]: 1 µg/mL (≈ 2.61 µM)
MIC [15]: 1.5 µg/mL (≈ 3.91 µM)
MIC [16]: 4 µg/mL (≈ 10.4 µM)
MIC [17]: 1 µg/mL (≈ 2.61 µM)
MIC [18]: 0.094 µg/mL (≈ 0.245 µM)
MIC [19]: 0.75 µg/mL (≈ 1.96 µM)
MIC [20]: 0.032 µg/mL (≈ 0.0834 µM)
MIC [21]: 0.064 µg/mL (≈ 0.167 µM)
MIC [22]: 0.094 µg/mL (≈ 0.245 µM)
MIC [23]: 1.5 µg/mL (≈ 3.91 µM)
MIC [24]: 1 µg/mL (≈ 2.61 µM)
MIC [25]: 12 µg/mL (≈ 31.3 µM)
MIC [26]: 0.047 µg/mL (≈ 0.123 µM)

CCN1CCN(C(=O)N[C@@H](C(=O)N[C@@H]2C(=O)N3[C@@H]2SC(C)(C)[C@@H]3C(=O)O)c2ccccc2)C(=O)C1=O [PIPERACILLIN]
MIC [27]: > 256 µg/mL
MIC [28]: > 256 µg/mL
MIC [29]: > 256 µg/mL
MIC [30]: > 256 µg/mL
MIC [31]: > 256 µg/mL
MIC [32]: > 256 µg/mL
MIC [33]: > 256 µg/mL
MIC [34]: > 256 µg/mL
MIC [35]: 32 µg/mL
MIC [36]: > 256 µg/mL
MIC [37]: > 256 µg/mL
MIC [38]: 16 µg/mL
MIC [39]: > 256 µg/mL
MIC [40]: > 256 µg/mL
MIC [41]: 12 µg/mL
MIC [42]: 12 µg/mL
MIC [43]: 8 µg/mL
MIC [44]: > 256 µg/mL
MIC [45]: > 256 µg/mL
MIC [46]: 6 µg/mL
MIC [47]: > 256 µg/mL
MIC [48]: > 256 µg/mL
MIC [49]: 3 µg/mL
MIC [50]: > 256 µg/mL
